# Measurements taken from patent US12492181B2, “Gem-disubstituted piperidine melanocortin subtype-2 receptor (MC2R) antagonists and uses thereof” (Crinetics Pharmaceuticals, Inc., priority 2019, dated 2025).
# Target: T1, hMC2 receptor (crude hMC2R membranes from CRE-bla-CHO-K1 cells stably expressing hMC2 receptor and hMRAP accessory protein) (Homo sapiens, UniProt Q01718)
# T1 construct: crude membrane fractions
# Test: hMC2 membrane binding assay ([125I]ACTH (1-39) Tyr23, SPA)
# Settings: displacement of 0.2 nM [125I]ACTH (1-39) Tyr23 from hMC2R membranes, 1.5 hours at room temperature; read-out: MC2R binding potency
# Summary of the method: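 Crude membranes from CRE-bla-CHO-K1 cells stably co-expressing hMC2R and hMRAP, premixed with WGA PVT SPA beads in pH 7.4 HEPES buffer (5 mM MgCl2, 1 mM CaCl2, 0.20% BSA, protease inhibitors). Compounds compete with [125I]ACTH(1-39) Tyr23, read by scintillation. Ki from non-linear regression.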
# T1 sequence (Q01718 whole entry): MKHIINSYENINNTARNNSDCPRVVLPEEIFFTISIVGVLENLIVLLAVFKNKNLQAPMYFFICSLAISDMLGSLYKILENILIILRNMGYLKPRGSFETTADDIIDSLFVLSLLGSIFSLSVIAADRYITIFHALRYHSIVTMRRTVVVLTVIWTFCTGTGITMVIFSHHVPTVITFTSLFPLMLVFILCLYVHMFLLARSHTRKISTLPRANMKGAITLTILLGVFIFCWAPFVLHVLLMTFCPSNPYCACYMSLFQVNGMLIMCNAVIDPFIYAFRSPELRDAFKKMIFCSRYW
# T1 sequence (Q8TCY5 whole entry partner): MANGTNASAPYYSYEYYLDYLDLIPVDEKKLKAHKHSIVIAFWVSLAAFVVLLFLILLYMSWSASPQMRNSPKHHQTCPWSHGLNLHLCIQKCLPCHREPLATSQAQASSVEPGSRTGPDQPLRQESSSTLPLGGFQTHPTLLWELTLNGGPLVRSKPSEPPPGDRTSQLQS
row,Compound,Ki [nM]
1,"COc1ccccc1-c1ccc(C2(C(=O)NC[C@H]3COCCN3C)CCN(c3ccc(C(F)(F)F)cc3C#N)CC2)cn1 [Compound 1-328, 1-[2-cyano-4-(trifluoromethyl)phenyl]-4-[6-(2-methoxyphenyl)pyridin-3-yl]-N-{[(3S)-4-methylmorpholin-3-yl]methyl}piperidine-4-carboxamide]",10 to 100
2,"Cn1cccc1-c1ccc(C2(C(=O)N[C@@H]3C[C@H]3N)CCN(c3ccc(C(F)(F)F)cc3C#N)CC2)cn1 (racemic) [Compound 1-259, rac-N-[(1R,2R)-2-aminocyclopropyl]-1-[2-cyano-4-(trifluoromethyl)phenyl]-4-[6-(1-methyl-1H-pyrrol-2-yl)pyridin-3-yl]piperidine-4-carboxamide]",10 to 100
3,"CN1CC[C@@H](NC(=O)C2(c3ccc(-c4ccnn4C)nc3)CCN(c3ccc(C(F)(F)F)cc3C#N)CC2)C1 [Compound 1-43, 1-[2-cyano-4-(trifluoromethyl)phenyl]-4-[6-(1-methyl-1H-pyrazol-5-yl)pyridin-3-yl]-N-[(3R)-1-methylpyrrolidin-3-yl]piperidine-4-carboxamide]",< 10
4,"CCc1ncccc1-c1ccc(C2(C(=O)N[C@@H]3CCN(C)C3)CCN(c3ccc(C(F)(F)F)cc3C#N)CC2)cn1 [Compound 1-118, 1-[2-cyano-4-(trifluoromethyl)phenyl]-4-{2′-ethyl-[2,3′-bipyridin]-5-yl}-N-[(3R)-1-methylpyrrolidin-3-yl]piperidine-4-carboxamide]",< 10
5,"COc1ccccc1-c1ccc(C2(C(=O)NCCN(C)C)CCN(c3ccc(C(F)(F)F)cc3C#N)CC2)cn1 [Compound 1-212, 1-[2-cyano-4-(trifluoromethyl)phenyl]-N-[2-(dimethylamino)ethyl]-4-[6-(2-methoxyphenyl)pyridin-3-yl]piperidine-4-carboxamide]",< 10
6,"CCOc1ccccc1-c1ccc(C2(C(=O)NC3CN(C)C3)CCN(c3ccc(C(F)(F)F)cc3C#N)CC2)cn1 [Compound 1-76, 1-[2-cyano-4-(trifluoromethyl)phenyl]-4-[6-(2-ethoxyphenyl)pyridin-3-yl]-N-(1-methylazetidin-3-yl)piperidine-4-carboxamide]",< 10
7,"CN1CC[C@H](C(=O)NC2(c3ccc(-c4cccn4C)nc3)CCN(c3ccc(C(F)(F)F)cc3C#N)CC2)C1 [Compound 2-46, (3S)—N-{1-[2-cyano-4-(trifluoromethyl)phenyl]-4-[6-(1-methyl-1H-pyrrol-2-yl)pyridin-3-yl]piperidin-4-yl}-1-methylpyrrolidine-3-carboxamide]",< 10
8,"CCOc1ncccc1-c1ccc(C2(C(=O)NCCN(C)C)CCN(c3ccc(C(F)(F)F)cc3C#N)CC2)nn1 [Compound 1-331, 1-[2-cyano-4-(trifluoromethyl)phenyl]-N-[2-(dimethylamino)ethyl]-4-[6-(2-ethoxypyridin-3-yl)pyridazin-3-yl]piperidine-4-carboxamide]",< 10
9,"CCOc1ncccc1-c1ccc(C2(C(=O)NC[C@H](CO)NC)CCN(c3ccc(C(F)(F)F)cc3C#N)CC2)cn1 [Compound 1-44, 1-[2-cyano-4-(trifluoromethyl)phenyl]-4-{2′-ethoxy-[2,3′-bipyridin]-5-yl}-N-[(2R)-3-hydroxy-2-(methylamino)propyl]piperidine-4-carboxamide]",< 10
10,"CCOc1ncccc1-c1ccc(C2(C(=O)NCCNC)CCN(c3ccc(C(F)(F)F)cc3C#N)CC2)cn1 [Compound 1-14, 1-[2-cyano-4-(trifluoromethyl)phenyl]-4-{2′-ethoxy-[2,3′-bipyridin]-5-yl}-N-[2-(methylamino)ethyl]piperidine-4-carboxamide]",< 10
11,"CCOc1ncccc1-c1ncc(C2(C(=O)N[C@@H](C)CN(C)C)CCN(c3ccc(Cl)cc3C#N)CC2)cc1F [Compound 1-325, 1-(4-chloro-2-cyanophenyl)-N-[(2S)-1-(dimethylamino)propan-2-yl]-4-{2′-ethoxy-3-fluoro-[2,3′-bipyridin]-5-yl}piperidine-4-carboxamide]",< 10
12,"CCOc1ncccc1-c1ccc(C2(C(=O)NCCCN)CCN(c3ccc(C(F)(F)F)cc3C#N)CC2)cc1 [Compound 1-5, N-(3-aminopropyl)-1-[2-cyano-4-(trifluoromethyl)phenyl]-4-[4-(2-ethoxypyridin-3-yl)phenyl]piperidine-4-carboxamide]",10 to 100
13,"CN1CC[C@@H](NC(=O)C2(c3ccc(-c4cc5ccccc5n4C)nc3)CCN(c3ccc(C(F)(F)F)cc3C#N)CC2)C1 [Compound 1-191, 1-[2-cyano-4-(trifluoromethyl)phenyl]-4-[6-(1-methyl-1H-indol-2-yl)pyridin-3-yl]-N-[(3R)-1-methylpyrrolidin-3-yl]piperidine-4-carboxamide]",10 to 100
14,"CNCCNC(=O)C1(c2ccc(-c3cccn3C)nc2)CCN(c2ccc(C(F)(F)F)cc2Cl)CC1 [Compound 1-283, 1-[2-chloro-4-(trifluoromethyl)phenyl]-4-[6-(1-methyl-1H-pyrrol-2-yl)pyridin-3-yl]-N-[2-(methylamino)ethyl]piperidine-4-carboxamide]",< 10
15,"CCc1ncccc1-c1ccc(C2(C(=O)N[C@H]3CCN(C)C3)CCN(c3ccc(C(F)(F)F)cc3Cl)CC2)cn1 [Compound 1-172, 1-[2-chloro-4-(trifluoromethyl)phenyl]-4-{2′-ethyl-[2,3′-bipyridin]-5-yl}-N-[(3S)-1-methylpyrrolidin-3-yl]piperidine-4-carboxamide]",< 10
16,"CCOc1ncccc1-c1ccc(C2(C(=O)N[C@H]3CCN(C)C3)CCN(c3ccc(C(F)(F)F)cc3Cl)CC2)cn1 [Compound 1-141, 1-[2-chloro-4-(trifluoromethyl)phenyl]-4-{2′-ethoxy-[2,3′-bipyridin]-5-yl}-N-[(3S)-1-methylpyrrolidin-3-yl]piperidine-4-carboxamide]",< 10
17,"CCOc1ccccc1-c1ccc(C2(C(=O)NCCN(C)C)CCN(c3ccc(C(F)(F)F)cc3F)CC2)cn1 [Compound 1-226, N-[2-(dimethylamino)ethyl]-4-[6-(2-ethoxyphenyl)pyridin-3-yl]-1-[2-fluoro-4-(trifluoromethyl)phenyl]piperidine-4-carboxamide]",< 10
18,"Cn1cccc1-c1ccc(C2(C(=O)N[C@H]3C[C@H](N)C3)CCN(c3ccc(C(F)(F)F)cc3C#N)CC2)cn1 [Compound 1-234, 1-[2-cyano-4-(trifluoromethyl)phenyl]-4-[6-(1-methyl-1H-pyrrol-2-yl)pyridin-3-yl]-N-[(1R,3R)-3-aminocyclobutyl]piperidine-4-carboxamide]",10 to 100
19,"CCOc1ccccc1-c1ccc(C2(C(=O)N[C@H]3CCN(C)C3)CCN(c3c(F)cc(Cl)cc3C#N)CC2)cn1 [Compound 1-111, 1-(4-chloro-2-cyano-6-fluorophenyl)-4-[6-(2-ethoxyphenyl)pyridin-3-yl]-N-[(3S)-1-methylpyrrolidin-3-yl]piperidine-4-carboxamide]",< 10
20,"CCOc1ccccc1-c1ccc(C2(C(=O)N[C@H]3CCN(C)C3)CCN(c3ccc(C(F)(F)F)cc3C#N)CC2)cn1 [Compound 1-30, 1-[2-cyano-4-(trifluoromethyl)phenyl]-4-[6-(2-ethoxyphenyl)pyridin-3-yl]-N-[(3S)-1-methylpyrrolidin-3-yl]piperidine-4-carboxamide]",< 10
